Reference: patent US20260138961A1, “MODULATORS OF MITOCHONDRIAL DNA REPLICATION” (Pretzel Therapeutics, Inc., priority 2022, published 2026)

The compounds below were run against T1, POLγA:G848S (Homo sapiens, UniProt P54098, G848S) (assay: DNA polymerization assay, POLγA:G848S mutant). Details: stimulation of polymerase activity, primed M13mp18 ssDNA, 37° C. 2 hours; read-out: G848S AC50.
T1 sequence (P54098 1-1239 G848S): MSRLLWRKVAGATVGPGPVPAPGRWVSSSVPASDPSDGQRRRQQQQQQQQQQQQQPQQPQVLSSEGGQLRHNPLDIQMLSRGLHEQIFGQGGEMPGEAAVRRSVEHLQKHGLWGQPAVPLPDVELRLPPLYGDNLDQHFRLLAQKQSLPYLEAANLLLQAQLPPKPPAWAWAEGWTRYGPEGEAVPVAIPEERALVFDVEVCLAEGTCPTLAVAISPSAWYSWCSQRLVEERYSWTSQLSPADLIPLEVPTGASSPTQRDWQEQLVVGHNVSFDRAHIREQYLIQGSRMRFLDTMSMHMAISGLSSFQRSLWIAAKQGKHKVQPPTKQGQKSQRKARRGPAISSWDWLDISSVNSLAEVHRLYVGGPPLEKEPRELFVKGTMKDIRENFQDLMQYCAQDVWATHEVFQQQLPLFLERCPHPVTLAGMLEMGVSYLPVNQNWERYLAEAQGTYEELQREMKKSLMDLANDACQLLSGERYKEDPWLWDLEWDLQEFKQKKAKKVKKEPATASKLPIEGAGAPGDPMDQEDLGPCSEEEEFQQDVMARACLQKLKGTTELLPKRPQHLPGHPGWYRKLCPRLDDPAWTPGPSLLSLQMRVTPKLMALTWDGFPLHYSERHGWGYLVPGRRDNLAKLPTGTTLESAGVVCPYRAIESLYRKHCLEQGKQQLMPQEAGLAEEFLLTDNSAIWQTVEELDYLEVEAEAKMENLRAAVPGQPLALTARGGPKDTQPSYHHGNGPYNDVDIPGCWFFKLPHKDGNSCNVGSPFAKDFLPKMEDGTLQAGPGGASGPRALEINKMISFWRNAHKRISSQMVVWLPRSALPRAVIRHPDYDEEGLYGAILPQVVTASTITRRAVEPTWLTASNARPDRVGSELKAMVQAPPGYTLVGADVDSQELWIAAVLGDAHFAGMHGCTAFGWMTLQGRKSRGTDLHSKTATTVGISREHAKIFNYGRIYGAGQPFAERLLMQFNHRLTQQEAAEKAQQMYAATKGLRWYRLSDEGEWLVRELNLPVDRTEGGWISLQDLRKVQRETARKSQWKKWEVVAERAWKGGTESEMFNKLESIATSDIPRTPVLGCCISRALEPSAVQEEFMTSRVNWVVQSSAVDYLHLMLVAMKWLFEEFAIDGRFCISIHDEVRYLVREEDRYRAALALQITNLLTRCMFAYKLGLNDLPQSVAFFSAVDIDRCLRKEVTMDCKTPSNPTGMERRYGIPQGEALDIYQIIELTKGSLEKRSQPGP
T1 sequence (Q9UHN1 1-485 partner): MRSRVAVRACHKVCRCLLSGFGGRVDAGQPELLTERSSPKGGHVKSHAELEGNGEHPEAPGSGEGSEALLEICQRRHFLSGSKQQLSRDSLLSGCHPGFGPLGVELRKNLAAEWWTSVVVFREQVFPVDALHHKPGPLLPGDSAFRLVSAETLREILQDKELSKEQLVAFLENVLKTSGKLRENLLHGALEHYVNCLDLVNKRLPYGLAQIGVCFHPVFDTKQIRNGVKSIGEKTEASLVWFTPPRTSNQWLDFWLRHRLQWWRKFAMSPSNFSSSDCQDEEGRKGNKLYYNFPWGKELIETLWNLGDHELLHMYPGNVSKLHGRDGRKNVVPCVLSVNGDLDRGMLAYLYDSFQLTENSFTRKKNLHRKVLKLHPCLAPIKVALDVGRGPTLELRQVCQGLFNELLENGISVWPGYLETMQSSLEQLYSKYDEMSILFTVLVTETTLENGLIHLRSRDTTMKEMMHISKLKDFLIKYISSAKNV
Assay type: biochemical

With `Cc1cc(S(=O)(=O)Nc2cnn(-c3ccccc3)n2)c(C)cc1Cl` [Example 171, 4-chloro-2,5-dimethyl-N-(2-phenyl-2H-1,2,3-triazol-4-yl)benzenesulfonamide] as the compound, how does the AC50 read?
The AC50 was > 10000 nM.

How did the AC50 turn out when `Cc1cc(S(=O)(=O)Nc2csc(C(=O)N(C)CC(N)=O)n2)c(C)cc1Cl` [Example 172, N-(2-amino-2-oxoethyl)-4-((4-chloro-2,5-dimethylphenyl)sulfonamido)-N-methylthiazole-2-carboxamide] was run?
Its AC50 is > 10000 nM.

For `Cc1cc(S(=O)(=O)Nc2csc(-c3ccccn3)n2)c(C)cc1Cl` [Example 173, 4-chloro-2,5-dimethyl-N-(2-(pyridin-2-yl)thiazol-4-yl)benzenesulfonamide], which AC50 is on record?
The AC50 was 2000 nM.

For `Cc1cc(S(=O)(=O)Nc2csc(C(=O)N3CCC[C@H]3C)n2)c(C)cc1Cl` [Example 174, (R)-4-chloro-2,5-dimethyl-N-(2-(2-methylpyrrolidine-1-carbonyl)thiazol-4-yl)benzenesulfonamide], which AC50 is on record?
Its AC50 is 400 nM.

`Cc1cc(S(=O)(=O)Nc2csc(C(=O)N3CCC[C@@H]3C)n2)c(C)cc1Cl` [Example 175, (S)-4-chloro-2,5-dimethyl-N-(2-(2-methylpyrrolidine-1-carbonyl)thiazol-4-yl)benzenesulfonamide] was tested. Which AC50 did it give?
Its AC50 is 1000 nM.

With `Cc1cc(S(=O)(=O)Nc2csc(-c3ccncc3)n2)c(C)cc1Cl` [Example 176, 4-chloro-2,5-dimethyl-N-(2-(pyridin-4-yl)thiazol-4-yl)benzenesulfonamide] as the compound, how does the AC50 read?
The AC50 was 400 nM.

With `Cc1cc(S(=O)(=O)Nc2csc(C(=O)N(CC(N)=O)C3CCCC3)n2)c(C)cc1Cl` [Example 177, N-(2-amino-2-oxoethyl)-4-((4-chloro-2,5-dimethylphenyl)sulfonamido)-N-cyclopentylthiazole-2-carboxamide] as the compound, how does the AC50 read?
Its AC50 is > 100000 nM.

Which AC50 does the source give for `Cc1cc(S(=O)(=O)Nc2csc(-n3cccn3)n2)c(C)cc1Cl` [Example 178, N-(2-(1H-pyrazol-1-yl)thiazol-4-yl)-4-chloro-2,5-dimethylbenzenesulfonamide] here?
Its AC50 is 1000 nM.

For `Cc1cc(S(=O)(=O)Nc2csc(C(=O)N(CC(N)=O)C3CCCCC3)n2)c(C)cc1Cl` [Example 179, N-(2-amino-2-oxoethyl)-4-((4-chloro-2,5-dimethylphenyl)sulfonamido)-N-cyclohexylthiazole-2-carboxamide], which AC50 is on record?
The AC50 was > 10000 nM.

For `Cc1cc(S(=O)(=O)Nc2nc(-c3ccccc3)n(C)n2)c(C)cc1Cl` [Example 180, 4-chloro-2,5-dimethyl-N-(1-methyl-5-phenyl-1H-1,2,4-triazol-3-yl)benzenesulfonamide], which AC50 is on record?
The AC50 was > 10000 nM.

How did the AC50 turn out when `Cc1cc(S(=O)(=O)Nc2csc(-c3ccn(C)n3)n2)c(C)cc1Cl` [Example 181, 4-chloro-2,5-dimethyl-N-(2-(1-methyl-1H-pyrazol-3-yl)thiazol-4-yl)benzenesulfonamide] was run?
The AC50 was 700 nM.

For `Cc1cc(S(=O)(=O)Nc2csc(-c3cnn(C)c3)n2)c(C)cc1Cl` [Example 183, 4-chloro-2,5-dimethyl-N-(2-(1-methyl-1H-pyrazol-4-yl)thiazol-4-yl)benzenesulfonamide], which AC50 is on record?
Its AC50 is 500 nM.

With `Cc1cc2cc(NS(=O)(=O)c3cc(C)c(Cl)cc3C)ccc2[nH]1` [Example 184, 4-chloro-2,5-dimethyl-N-(2-methyl-1H-indol-5-yl)benzenesulfonamide] as the compound, how does the AC50 read?
The AC50 was 24000 nM.
